Test results reported in a compilation of properties of binary mixtures (doi:10.1016/j.molliq.2021.116463).

Experiment: xn = mol fraction of the nth substance listed
Conditions: 100 kPa

[Cl-].c1c[nH+]c[nH]1 + OCC(O)CO
viscosity [mPa·s]
Conditions	293.2 K	303.2 K	313.2 K	323.2 K	333.2 K	343.2 K	353.2 K
x1 = 0.1667	565	397	–	196	149.3	127.7	116.4
x1 = 0.25	429	294	207	–	60.9	37.7	24.8
x1 = 0.3333	321	219	–	–	49.6	31.2	20.6
x1 = 0.5	472	355	285	141.2	–	–	38.2
